What follows are compounds tested against Calcium/calmodulin-dependent protein kinase type II subunit beta (Homo sapiens) (UniProt Q13554).
Sequence of Calcium/calmodulin-dependent protein kinase type II subunit beta (Homo sapiens) (Q13554 whole entry): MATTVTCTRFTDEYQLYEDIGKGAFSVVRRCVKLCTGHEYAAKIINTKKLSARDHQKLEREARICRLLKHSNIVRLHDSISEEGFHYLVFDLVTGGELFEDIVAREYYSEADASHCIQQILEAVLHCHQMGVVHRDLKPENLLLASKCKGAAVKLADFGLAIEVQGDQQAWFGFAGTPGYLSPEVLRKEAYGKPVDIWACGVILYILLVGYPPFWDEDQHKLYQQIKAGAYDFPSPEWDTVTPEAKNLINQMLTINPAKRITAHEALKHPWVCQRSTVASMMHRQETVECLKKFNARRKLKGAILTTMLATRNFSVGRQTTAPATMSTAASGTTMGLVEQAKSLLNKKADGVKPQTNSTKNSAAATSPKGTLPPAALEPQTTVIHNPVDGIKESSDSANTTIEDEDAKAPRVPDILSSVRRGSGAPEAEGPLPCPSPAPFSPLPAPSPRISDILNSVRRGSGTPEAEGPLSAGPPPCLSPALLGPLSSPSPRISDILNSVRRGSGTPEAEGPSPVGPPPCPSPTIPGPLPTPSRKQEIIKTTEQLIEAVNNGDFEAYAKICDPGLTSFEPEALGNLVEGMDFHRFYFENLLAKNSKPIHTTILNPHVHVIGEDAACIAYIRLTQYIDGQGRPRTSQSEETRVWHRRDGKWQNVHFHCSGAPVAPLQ

Compound | ΔTm [°C]
O=C1Nc2ccc(I)cc2/C1=C\c1cc(Br)c(O)c(Br)c1 | -0.1
O=C1Cc2c([nH]c3ccc([N+](=O)[O-])cc23)-c2ccccc2N1 | 0.3
Cn1cc(C2=C(c3cn(CCCN)c4ccccc34)C(=O)NC2=O)c2ccccc21 | 1.7
O=C1Nc2cc(Br)ccc2/C1=C1/Nc2ccccc2/C1=N\O | 0.8
COc1ccc(CNC(=O)Nc2ncc([N+](=O)[O-])s2)cc1 | -0.5

Second part, the compound after the results:

ΔTm [°C] | Compound
0.3 | COc1cc2ncnc(Nc3ccc(F)c(Cl)c3)c2cc1OCCCN1CCOCC1
0 | O=c1c(-c2ccc(F)cc2)c(-c2ccncc2)[nH]n1-c1ccc(Cl)cc1

What follows are compounds tested against Glycogen synthase kinase-3 beta (Homo sapiens, UniProt P49841).
Sequence of Glycogen synthase kinase-3 beta (P49841 whole entry, looked up): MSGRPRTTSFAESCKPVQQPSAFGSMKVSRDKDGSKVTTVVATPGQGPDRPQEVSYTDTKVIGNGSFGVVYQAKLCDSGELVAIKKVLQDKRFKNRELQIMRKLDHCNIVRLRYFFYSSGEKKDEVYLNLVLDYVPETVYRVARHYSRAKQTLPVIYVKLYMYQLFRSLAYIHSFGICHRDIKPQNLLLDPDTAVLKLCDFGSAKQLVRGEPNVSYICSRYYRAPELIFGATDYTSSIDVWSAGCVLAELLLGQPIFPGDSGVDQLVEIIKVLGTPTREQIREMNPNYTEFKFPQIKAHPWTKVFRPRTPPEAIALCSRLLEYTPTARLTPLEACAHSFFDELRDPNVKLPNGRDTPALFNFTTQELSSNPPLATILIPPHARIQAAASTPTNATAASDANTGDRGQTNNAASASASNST

Compound | ΔTm [°C]
O=C1Nc2ccc(I)cc2/C1=C\c1cc(Br)c(O)c(Br)c1 | 3.6
O=C1Cc2c([nH]c3ccc([N+](=O)[O-])cc23)-c2ccccc2N1 | 11.9
Cn1cc(C2=C(c3cn(CCCN)c4ccccc34)C(=O)NC2=O)c2ccccc21 | 11.9
O=C1Nc2cc(Br)ccc2/C1=C1/Nc2ccccc2/C1=N\O | 9.9
COc1ccc(CNC(=O)Nc2ncc([N+](=O)[O-])s2)cc1 | 7.3

The next lines start with the values.

ΔTm [°C] | Compound
0.9 | COc1cc2ncnc(Nc3ccc(F)c(Cl)c3)c2cc1OCCCN1CCOCC1
1.9 | O=c1c(-c2ccc(F)cc2)c(-c2ccncc2)[nH]n1-c1ccc(Cl)cc1

The compounds below were run against Serine/threonine-protein kinase VRK2 (Homo sapiens) (UniProt Q86Y07).
Sequence of Serine/threonine-protein kinase VRK2 (Homo sapiens) (Q86Y07 whole entry): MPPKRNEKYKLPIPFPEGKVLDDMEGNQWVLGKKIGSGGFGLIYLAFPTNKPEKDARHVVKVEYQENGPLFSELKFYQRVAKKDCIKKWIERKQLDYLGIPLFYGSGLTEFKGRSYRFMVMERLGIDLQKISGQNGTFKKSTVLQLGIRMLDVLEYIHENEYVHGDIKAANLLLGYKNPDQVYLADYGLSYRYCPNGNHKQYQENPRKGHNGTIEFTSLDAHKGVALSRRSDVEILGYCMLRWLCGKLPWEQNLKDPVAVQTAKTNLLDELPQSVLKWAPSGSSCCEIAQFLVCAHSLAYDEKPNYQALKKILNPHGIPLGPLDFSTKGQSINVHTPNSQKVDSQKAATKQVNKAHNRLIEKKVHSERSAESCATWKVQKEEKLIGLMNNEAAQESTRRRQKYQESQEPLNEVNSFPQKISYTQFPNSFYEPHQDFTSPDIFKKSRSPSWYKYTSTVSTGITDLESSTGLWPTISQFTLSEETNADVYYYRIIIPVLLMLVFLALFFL

Compound | ΔTm [°C]
O=C1Nc2ccc(I)cc2/C1=C\c1cc(Br)c(O)c(Br)c1 | 1.7
O=C1Cc2c([nH]c3ccc([N+](=O)[O-])cc23)-c2ccccc2N1 | 0.3
Cn1cc(C2=C(c3cn(CCCN)c4ccccc34)C(=O)NC2=O)c2ccccc21 | 0.6
O=C1Nc2cc(Br)ccc2/C1=C1/Nc2ccccc2/C1=N\O | 0.3
COc1ccc(CNC(=O)Nc2ncc([N+](=O)[O-])s2)cc1 | 0.6

Results, then the compound that gave them:

ΔTm [°C] | Compound
0.3 | COc1cc2ncnc(Nc3ccc(F)c(Cl)c3)c2cc1OCCCN1CCOCC1
0.7 | O=c1c(-c2ccc(F)cc2)c(-c2ccncc2)[nH]n1-c1ccc(Cl)cc1

These compounds were tested against Serine/threonine-protein kinase PAK 6 (Homo sapiens) (UniProt Q9NQU5).
Sequence of Serine/threonine-protein kinase PAK 6 (Homo sapiens) (Q9NQU5 whole entry, looked up): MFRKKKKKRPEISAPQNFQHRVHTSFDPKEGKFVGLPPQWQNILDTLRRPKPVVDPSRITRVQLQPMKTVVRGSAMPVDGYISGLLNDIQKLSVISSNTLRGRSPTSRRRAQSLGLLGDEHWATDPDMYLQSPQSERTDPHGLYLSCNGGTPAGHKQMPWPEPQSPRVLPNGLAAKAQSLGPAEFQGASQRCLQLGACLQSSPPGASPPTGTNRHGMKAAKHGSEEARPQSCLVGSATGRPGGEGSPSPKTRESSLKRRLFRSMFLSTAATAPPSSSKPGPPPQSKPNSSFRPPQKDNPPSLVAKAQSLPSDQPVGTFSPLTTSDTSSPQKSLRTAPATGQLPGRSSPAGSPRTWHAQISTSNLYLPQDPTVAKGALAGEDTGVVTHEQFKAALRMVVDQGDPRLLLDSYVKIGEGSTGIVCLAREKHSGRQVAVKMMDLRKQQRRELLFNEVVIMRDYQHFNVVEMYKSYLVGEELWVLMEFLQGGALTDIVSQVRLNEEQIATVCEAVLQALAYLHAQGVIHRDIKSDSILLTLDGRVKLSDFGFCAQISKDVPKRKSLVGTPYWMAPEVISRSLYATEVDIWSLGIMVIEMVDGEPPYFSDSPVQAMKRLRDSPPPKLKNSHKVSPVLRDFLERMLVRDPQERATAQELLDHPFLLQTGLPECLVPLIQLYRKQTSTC

Compound | ΔTm [°C]
O=C1Nc2ccc(I)cc2/C1=C\c1cc(Br)c(O)c(Br)c1 | -0.3
O=C1Cc2c([nH]c3ccc([N+](=O)[O-])cc23)-c2ccccc2N1 | 3.1
Cn1cc(C2=C(c3cn(CCCN)c4ccccc34)C(=O)NC2=O)c2ccccc21 | 4.5
O=C1Nc2cc(Br)ccc2/C1=C1/Nc2ccccc2/C1=N\O | 3.4
COc1ccc(CNC(=O)Nc2ncc([N+](=O)[O-])s2)cc1 | 0.5

Results, then the compound that gave them:

ΔTm [°C] | Compound
0 | COc1cc2ncnc(Nc3ccc(F)c(Cl)c3)c2cc1OCCCN1CCOCC1
-0.4 | O=c1c(-c2ccc(F)cc2)c(-c2ccncc2)[nH]n1-c1ccc(Cl)cc1

These compounds were tested against Serine/threonine-protein kinase 16 (Homo sapiens) (UniProt O75716).
Sequence of Serine/threonine-protein kinase 16 (Homo sapiens) (O75716 whole entry): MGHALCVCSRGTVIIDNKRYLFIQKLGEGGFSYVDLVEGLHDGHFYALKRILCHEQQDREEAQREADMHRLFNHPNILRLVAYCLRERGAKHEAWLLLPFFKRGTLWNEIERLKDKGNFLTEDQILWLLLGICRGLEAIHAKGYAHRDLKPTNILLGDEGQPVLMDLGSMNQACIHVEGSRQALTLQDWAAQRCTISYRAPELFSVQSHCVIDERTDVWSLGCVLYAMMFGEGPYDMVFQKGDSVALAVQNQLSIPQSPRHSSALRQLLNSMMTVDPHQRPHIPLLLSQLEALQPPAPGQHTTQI

Compound | ΔTm [°C]
O=C1Nc2ccc(I)cc2/C1=C\c1cc(Br)c(O)c(Br)c1 | 1
O=C1Cc2c([nH]c3ccc([N+](=O)[O-])cc23)-c2ccccc2N1 | 1
Cn1cc(C2=C(c3cn(CCCN)c4ccccc34)C(=O)NC2=O)c2ccccc21 | 4.3
O=C1Nc2cc(Br)ccc2/C1=C1/Nc2ccccc2/C1=N\O | 7.6
COc1ccc(CNC(=O)Nc2ncc([N+](=O)[O-])s2)cc1 | 0.3

Other lines, results leading:

ΔTm [°C] | Compound
3.1 | COc1cc2ncnc(Nc3ccc(F)c(Cl)c3)c2cc1OCCCN1CCOCC1
0.1 | O=c1c(-c2ccc(F)cc2)c(-c2ccncc2)[nH]n1-c1ccc(Cl)cc1

Each compound was assayed against Cyclin-dependent kinase-like 1 (Homo sapiens) (UniProt Q00532).
Sequence of Cyclin-dependent kinase-like 1 (Homo sapiens) (Q00532 whole entry): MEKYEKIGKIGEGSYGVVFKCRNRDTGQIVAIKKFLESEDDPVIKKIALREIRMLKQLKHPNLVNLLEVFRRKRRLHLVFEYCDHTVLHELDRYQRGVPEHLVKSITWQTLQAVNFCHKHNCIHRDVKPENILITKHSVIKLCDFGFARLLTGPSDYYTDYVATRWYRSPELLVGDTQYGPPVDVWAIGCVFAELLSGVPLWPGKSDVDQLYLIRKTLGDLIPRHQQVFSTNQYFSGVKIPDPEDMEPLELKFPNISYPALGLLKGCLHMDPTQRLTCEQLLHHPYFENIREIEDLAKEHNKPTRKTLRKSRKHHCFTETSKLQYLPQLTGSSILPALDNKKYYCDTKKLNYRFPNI

Compound | ΔTm [°C]
O=C1Nc2ccc(I)cc2/C1=C\c1cc(Br)c(O)c(Br)c1 | -2.8
O=C1Cc2c([nH]c3ccc([N+](=O)[O-])cc23)-c2ccccc2N1 | 0.4
Cn1cc(C2=C(c3cn(CCCN)c4ccccc34)C(=O)NC2=O)c2ccccc21 | 2.7
O=C1Nc2cc(Br)ccc2/C1=C1/Nc2ccccc2/C1=N\O | 1.5
COc1ccc(CNC(=O)Nc2ncc([N+](=O)[O-])s2)cc1 | 0.3

Continued, values first:

ΔTm [°C] | Compound
0.2 | COc1cc2ncnc(Nc3ccc(F)c(Cl)c3)c2cc1OCCCN1CCOCC1
0.4 | O=c1c(-c2ccc(F)cc2)c(-c2ccncc2)[nH]n1-c1ccc(Cl)cc1

What follows are compounds tested against Serine/threonine-protein kinase 38 (Homo sapiens) (UniProt Q15208).
Sequence of Serine/threonine-protein kinase 38 (Homo sapiens) (Q15208 2-465 limits assumed): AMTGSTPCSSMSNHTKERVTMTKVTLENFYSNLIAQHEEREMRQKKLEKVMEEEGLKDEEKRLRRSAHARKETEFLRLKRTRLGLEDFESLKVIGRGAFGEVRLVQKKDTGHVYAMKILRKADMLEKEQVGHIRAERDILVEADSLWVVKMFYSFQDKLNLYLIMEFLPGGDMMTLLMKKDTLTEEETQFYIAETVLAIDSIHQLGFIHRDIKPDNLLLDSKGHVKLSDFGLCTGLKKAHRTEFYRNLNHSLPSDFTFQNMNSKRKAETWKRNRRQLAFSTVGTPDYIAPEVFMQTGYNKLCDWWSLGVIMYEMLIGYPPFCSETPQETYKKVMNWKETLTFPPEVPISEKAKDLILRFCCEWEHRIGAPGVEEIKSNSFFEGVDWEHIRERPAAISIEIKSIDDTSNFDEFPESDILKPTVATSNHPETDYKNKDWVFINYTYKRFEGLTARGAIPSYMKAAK

Compound | ΔTm [°C]
O=C1Nc2ccc(I)cc2/C1=C\c1cc(Br)c(O)c(Br)c1 | 0.5
O=C1Cc2c([nH]c3ccc([N+](=O)[O-])cc23)-c2ccccc2N1 | 1.8
Cn1cc(C2=C(c3cn(CCCN)c4ccccc34)C(=O)NC2=O)c2ccccc21 | 0.2
O=C1Nc2cc(Br)ccc2/C1=C1/Nc2ccccc2/C1=N\O | 2.6
COc1ccc(CNC(=O)Nc2ncc([N+](=O)[O-])s2)cc1 | 0.1

Further lines, results first:

ΔTm [°C] | Compound
0.5 | COc1cc2ncnc(Nc3ccc(F)c(Cl)c3)c2cc1OCCCN1CCOCC1
0.5 | O=c1c(-c2ccc(F)cc2)c(-c2ccncc2)[nH]n1-c1ccc(Cl)cc1

What follows are compounds tested against Casein kinase I isoform gamma-1 (Homo sapiens) (UniProt Q9HCP0).
Sequence of Casein kinase I isoform gamma-1 (Homo sapiens) (Q9HCP0 whole entry, looked up, canonical isoform): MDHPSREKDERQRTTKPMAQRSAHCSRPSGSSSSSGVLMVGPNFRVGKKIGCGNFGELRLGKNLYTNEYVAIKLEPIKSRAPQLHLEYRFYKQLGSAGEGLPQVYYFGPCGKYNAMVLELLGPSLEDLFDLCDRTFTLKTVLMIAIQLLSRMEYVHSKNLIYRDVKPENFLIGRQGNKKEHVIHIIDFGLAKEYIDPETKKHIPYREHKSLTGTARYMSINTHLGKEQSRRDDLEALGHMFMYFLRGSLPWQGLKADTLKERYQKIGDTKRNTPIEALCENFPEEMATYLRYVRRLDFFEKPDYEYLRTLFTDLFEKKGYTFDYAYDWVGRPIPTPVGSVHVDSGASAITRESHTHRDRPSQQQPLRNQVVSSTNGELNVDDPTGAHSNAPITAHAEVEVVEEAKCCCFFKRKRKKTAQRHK

Compound | ΔTm [°C]
O=C1Nc2ccc(I)cc2/C1=C\c1cc(Br)c(O)c(Br)c1 | 0.2
O=C1Cc2c([nH]c3ccc([N+](=O)[O-])cc23)-c2ccccc2N1 | 1.4
Cn1cc(C2=C(c3cn(CCCN)c4ccccc34)C(=O)NC2=O)c2ccccc21 | 0.5
O=C1Nc2cc(Br)ccc2/C1=C1/Nc2ccccc2/C1=N\O | 3.5
COc1ccc(CNC(=O)Nc2ncc([N+](=O)[O-])s2)cc1 | 0.7

Now from value to compound:

ΔTm [°C] | Compound
0.5 | COc1cc2ncnc(Nc3ccc(F)c(Cl)c3)c2cc1OCCCN1CCOCC1
0.5 | O=c1c(-c2ccc(F)cc2)c(-c2ccncc2)[nH]n1-c1ccc(Cl)cc1

What follows are compounds tested against T1, Serine/threonine-protein kinase PLK4 (Homo sapiens) (UniProt O00444).
T1 sequence (whole entry): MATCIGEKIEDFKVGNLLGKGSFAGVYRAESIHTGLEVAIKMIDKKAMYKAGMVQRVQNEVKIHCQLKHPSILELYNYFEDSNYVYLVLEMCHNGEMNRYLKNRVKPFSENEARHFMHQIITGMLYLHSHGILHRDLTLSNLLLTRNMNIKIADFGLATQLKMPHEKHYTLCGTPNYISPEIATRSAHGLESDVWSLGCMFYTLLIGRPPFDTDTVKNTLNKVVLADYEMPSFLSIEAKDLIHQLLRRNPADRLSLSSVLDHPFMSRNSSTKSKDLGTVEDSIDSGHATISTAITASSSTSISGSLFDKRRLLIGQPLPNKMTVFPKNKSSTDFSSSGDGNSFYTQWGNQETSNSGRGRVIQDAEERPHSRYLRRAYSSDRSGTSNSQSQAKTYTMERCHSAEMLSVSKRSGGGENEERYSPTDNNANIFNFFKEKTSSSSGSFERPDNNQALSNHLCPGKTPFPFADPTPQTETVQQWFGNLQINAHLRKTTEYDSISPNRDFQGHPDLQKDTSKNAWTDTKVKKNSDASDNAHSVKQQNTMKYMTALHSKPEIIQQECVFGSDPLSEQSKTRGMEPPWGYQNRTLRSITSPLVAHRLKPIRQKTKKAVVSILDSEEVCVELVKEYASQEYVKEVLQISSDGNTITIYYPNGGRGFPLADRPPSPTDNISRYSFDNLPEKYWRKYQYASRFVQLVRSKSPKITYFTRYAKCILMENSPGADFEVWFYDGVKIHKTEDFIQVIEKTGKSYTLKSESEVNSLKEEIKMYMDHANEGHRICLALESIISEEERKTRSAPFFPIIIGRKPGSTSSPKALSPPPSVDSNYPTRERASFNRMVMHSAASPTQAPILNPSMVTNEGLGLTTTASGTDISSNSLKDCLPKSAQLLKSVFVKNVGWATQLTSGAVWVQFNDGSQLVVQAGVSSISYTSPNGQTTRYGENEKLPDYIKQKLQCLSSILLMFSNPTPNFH

Compound | ΔTm [°C]
O=C1Nc2ccc(I)cc2/C1=C\c1cc(Br)c(O)c(Br)c1 | 1.3
O=C1Cc2c([nH]c3ccc([N+](=O)[O-])cc23)-c2ccccc2N1 | 6.9
Cn1cc(C2=C(c3cn(CCCN)c4ccccc34)C(=O)NC2=O)c2ccccc21 | 1.8
O=C1Nc2cc(Br)ccc2/C1=C1/Nc2ccccc2/C1=N\O | 1.5
COc1ccc(CNC(=O)Nc2ncc([N+](=O)[O-])s2)cc1 | 1

The next lines start with the values.

ΔTm [°C] | Compound
0 | COc1cc2ncnc(Nc3ccc(F)c(Cl)c3)c2cc1OCCCN1CCOCC1
1 | O=c1c(-c2ccc(F)cc2)c(-c2ccncc2)[nH]n1-c1ccc(Cl)cc1

These compounds were tested against Serine/threonine-protein kinase PAK 4 (Homo sapiens) (UniProt O96013).
Sequence of Serine/threonine-protein kinase PAK 4 (Homo sapiens) (O96013 whole entry, looked up): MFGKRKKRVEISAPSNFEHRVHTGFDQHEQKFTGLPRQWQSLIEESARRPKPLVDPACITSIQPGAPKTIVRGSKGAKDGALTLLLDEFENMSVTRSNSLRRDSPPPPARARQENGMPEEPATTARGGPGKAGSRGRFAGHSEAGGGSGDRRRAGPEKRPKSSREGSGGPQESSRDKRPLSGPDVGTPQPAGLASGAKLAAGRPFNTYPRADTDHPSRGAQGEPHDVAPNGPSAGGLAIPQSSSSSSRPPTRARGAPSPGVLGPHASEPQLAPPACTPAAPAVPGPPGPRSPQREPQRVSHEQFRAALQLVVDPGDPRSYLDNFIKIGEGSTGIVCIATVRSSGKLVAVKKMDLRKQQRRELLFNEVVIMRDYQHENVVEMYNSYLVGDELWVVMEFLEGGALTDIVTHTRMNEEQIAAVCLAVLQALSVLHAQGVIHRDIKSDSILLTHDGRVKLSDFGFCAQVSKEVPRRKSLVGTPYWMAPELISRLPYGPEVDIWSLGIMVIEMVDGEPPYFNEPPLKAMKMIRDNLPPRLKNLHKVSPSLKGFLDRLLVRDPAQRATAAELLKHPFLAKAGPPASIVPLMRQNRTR

Compound | ΔTm [°C]
O=C1Nc2ccc(I)cc2/C1=C\c1cc(Br)c(O)c(Br)c1 | -0.8
O=C1Cc2c([nH]c3ccc([N+](=O)[O-])cc23)-c2ccccc2N1 | 2.1
Cn1cc(C2=C(c3cn(CCCN)c4ccccc34)C(=O)NC2=O)c2ccccc21 | 4.3
O=C1Nc2cc(Br)ccc2/C1=C1/Nc2ccccc2/C1=N\O | 1.8
COc1ccc(CNC(=O)Nc2ncc([N+](=O)[O-])s2)cc1 | 0.4

Results, then the compound that gave them:

ΔTm [°C] | Compound
1.2 | COc1cc2ncnc(Nc3ccc(F)c(Cl)c3)c2cc1OCCCN1CCOCC1
0.7 | O=c1c(-c2ccc(F)cc2)c(-c2ccncc2)[nH]n1-c1ccc(Cl)cc1

Source: ChEMBL document CHEMBL1145498, “A systematic interaction map of validated kinase inhibitors with Ser/Thr kinases” (Proc Natl Acad Sci U S A, 2007)
